Source: ChEMBL document CHEMBL1201862, “PubChem BioAssay data set” (2004)
Active and inactive are the calls of the source.

Assays:
[1] = mouse fibroblast viability loss – cell-based, cherry-pick samples, set 2, cytotoxicity control for T. cruzi growth inhibitor project, dose response (AID 651817); type: functional; conditions: NIH3T3
[2] = A549 cell cytotoxicity, dose response, cytotoxicity control, plate reader, cherry-pick, antagonist series (AID 743412); type: functional, cell-based
[3] = blockade of melanocortin 4 receptor signaling – cell-based, plate reader, cherry pick, counter-screen for LGR2 antagonist project, dose response (AID 743444); type: functional;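 also: transfected HEK 293 cells stimulated with alpha-MSH peptide; potency of inhibitors of the alpha-MSH evoked signal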
[4] = inhibition of bursicon-driven LGR2 cAMP signaling – cell-based, HEK293, CRE-luciferase reporter, cherry pick, dose response (AID 743342); type: functional
[5] = activation of miR-122 Renilla sensor silencing – cell-based, Huh7 psiCHECK-miR122, Renilla luciferase, cherry-picked, dose response (AID 651956); type: functional;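 also: huh7 hepatoma cells stably carrying a psiCHECK-2 miR-122 sensor plasmid; renilla luciferase signal reporting endogenous miR-122 activity after 48 h compound exposure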
[6] = general mammalian cell viability loss – activator set, cherry-pick, cytotoxicity control for miR-122 modulator project, dose response (AID 720690); type: functional, cell-based;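 also: HEK293T human cells scored for general mammalian cytotoxicity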
H9c2 = experiment: cells; type: functional, cell-based; conditions: Rattus norvegicus, H9c2, Myocardium;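 also: confirmatory concentration-response retest of ultra-high-throughput screening hits for modulation of myocardial damage; cell death induced by hydrogen peroxide oxidative stress; compound pretreatment for 60 min then peroxide exposure for 2 h; potency is for protecting the cells against peroxide damage rather than for killing them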
[7] = target: T1, ATP-dependent translocase ABCB1 (Homo sapiens, UniProt P08183); experiment: inhibition of BCRP-mediated JC-1 efflux – Ig-MXP3 cells, flow cytometry, set 2, dose response (AID 504566); type: functional; conditions: read-out: EC50_MICROM_;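 also: flow cytometry median green fluorescence of retained JC-1 dye; potency of efflux pump inhibition measured as rising substrate retention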
T1 sequence (P08183 whole entry): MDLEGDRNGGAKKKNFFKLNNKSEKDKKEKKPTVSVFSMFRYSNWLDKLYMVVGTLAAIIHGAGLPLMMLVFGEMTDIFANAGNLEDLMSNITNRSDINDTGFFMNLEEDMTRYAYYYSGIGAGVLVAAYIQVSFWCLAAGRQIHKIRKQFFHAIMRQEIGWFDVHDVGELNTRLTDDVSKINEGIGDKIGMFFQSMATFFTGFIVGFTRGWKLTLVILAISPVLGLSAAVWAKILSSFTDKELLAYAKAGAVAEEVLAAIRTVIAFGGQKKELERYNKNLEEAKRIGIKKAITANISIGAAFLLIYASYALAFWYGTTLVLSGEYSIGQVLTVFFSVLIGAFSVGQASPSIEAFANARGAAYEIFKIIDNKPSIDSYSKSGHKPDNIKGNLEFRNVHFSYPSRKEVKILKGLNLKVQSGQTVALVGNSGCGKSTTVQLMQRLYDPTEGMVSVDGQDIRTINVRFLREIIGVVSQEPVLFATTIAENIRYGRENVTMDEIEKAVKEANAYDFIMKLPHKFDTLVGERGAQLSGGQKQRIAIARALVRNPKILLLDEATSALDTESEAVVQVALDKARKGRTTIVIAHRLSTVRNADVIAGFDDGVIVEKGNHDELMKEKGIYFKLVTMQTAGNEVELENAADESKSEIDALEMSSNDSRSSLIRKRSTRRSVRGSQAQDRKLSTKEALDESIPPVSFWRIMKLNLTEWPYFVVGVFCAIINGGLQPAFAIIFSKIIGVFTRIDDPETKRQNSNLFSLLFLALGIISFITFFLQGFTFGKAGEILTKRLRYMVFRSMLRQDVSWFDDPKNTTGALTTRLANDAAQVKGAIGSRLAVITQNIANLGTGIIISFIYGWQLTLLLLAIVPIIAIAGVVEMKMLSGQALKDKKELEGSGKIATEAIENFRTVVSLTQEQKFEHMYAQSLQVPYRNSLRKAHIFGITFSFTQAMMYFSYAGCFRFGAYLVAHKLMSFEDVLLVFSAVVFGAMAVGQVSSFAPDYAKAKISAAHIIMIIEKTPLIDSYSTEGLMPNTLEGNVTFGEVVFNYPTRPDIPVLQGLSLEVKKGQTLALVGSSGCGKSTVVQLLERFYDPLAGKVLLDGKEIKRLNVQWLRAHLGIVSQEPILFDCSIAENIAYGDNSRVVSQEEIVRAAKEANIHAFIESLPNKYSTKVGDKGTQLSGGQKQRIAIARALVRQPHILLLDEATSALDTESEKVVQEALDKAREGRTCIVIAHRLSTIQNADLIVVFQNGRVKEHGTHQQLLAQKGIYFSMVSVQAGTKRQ

[8] = target: T1, ATP-dependent translocase ABCB1; experiment: P-gp JC-1 efflux blockade concentration-response – Jurkat-DNR cells, flow cytometry, set 2, dose response (AID 504569); type: functional; conditions: read-out: EC50_MICROM_;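 also: potency of pump inhibitors that raise cellular JC-1 green fluorescence up to the nicardipine level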
Beta-lactamase [9] = target: Beta-lactamase (Salmonella choleraesuis (strain SC-B67), UniProt Q5J463); experiment: Epi-absorbance-based counterscreen for selective VIM-2 inhibitors: dose response biochemical high throughput screening assay to identify inhibitors of TEM-1 serine-beta-lactamase.
Beta-lactamase (Salmonella choleraesuis (strain SC-B67), UniProt Q5J463), sequence (Q5J463 whole entry): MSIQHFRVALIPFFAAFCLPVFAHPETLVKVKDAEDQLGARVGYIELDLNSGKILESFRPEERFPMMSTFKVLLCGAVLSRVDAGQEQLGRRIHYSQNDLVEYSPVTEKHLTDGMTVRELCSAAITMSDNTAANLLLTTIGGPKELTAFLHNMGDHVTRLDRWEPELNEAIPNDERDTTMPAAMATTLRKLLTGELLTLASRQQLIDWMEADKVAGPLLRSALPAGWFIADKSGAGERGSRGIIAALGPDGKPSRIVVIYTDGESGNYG

Beta-lactamase [10] = target: T2, Beta-lactamase (Pseudomonas aeruginosa, UniProt Q79MP6); experiment: […] counterscreen for selective VIM-2 inhibitors: dose response biochemical high throughput screening assay to identify inhibitors of IMP-1 metallo-beta-lactamase.
T2 sequence (Q79MP6 whole entry): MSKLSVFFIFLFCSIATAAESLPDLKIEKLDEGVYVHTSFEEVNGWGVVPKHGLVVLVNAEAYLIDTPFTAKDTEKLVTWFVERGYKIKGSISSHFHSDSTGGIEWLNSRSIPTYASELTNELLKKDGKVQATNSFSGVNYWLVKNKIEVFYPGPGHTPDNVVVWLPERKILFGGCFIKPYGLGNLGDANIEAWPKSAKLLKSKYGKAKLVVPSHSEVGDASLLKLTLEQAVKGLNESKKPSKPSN

Beta-lactamase [11] = target: T2, Beta-lactamase; experiment: inhibition of IMP-1 beta-lactamase activity – biochemical, epi-absorbance, selectivity assay for VIM-2 inhibitor project, dose response (AID 1920)
[12] = Counterscreen for activators of the function of SWI/SNF related, matrix associated, actin dependent regulator of chromatin, subfamily a, member 2 (SMARCA2, BRM): Luminescence-based cell-based high throughput dose response assay to identify non-selective compounds using the VP16 reporter assay.; type: functional
HEK293 [13] = experiment: cells; conditions: Homo sapiens
[14] = target: T3, DNA repair protein RAD52 homolog (Homo sapiens, UniProt P43351); type: functional, biochemical
T3 sequence (P43351 whole entry): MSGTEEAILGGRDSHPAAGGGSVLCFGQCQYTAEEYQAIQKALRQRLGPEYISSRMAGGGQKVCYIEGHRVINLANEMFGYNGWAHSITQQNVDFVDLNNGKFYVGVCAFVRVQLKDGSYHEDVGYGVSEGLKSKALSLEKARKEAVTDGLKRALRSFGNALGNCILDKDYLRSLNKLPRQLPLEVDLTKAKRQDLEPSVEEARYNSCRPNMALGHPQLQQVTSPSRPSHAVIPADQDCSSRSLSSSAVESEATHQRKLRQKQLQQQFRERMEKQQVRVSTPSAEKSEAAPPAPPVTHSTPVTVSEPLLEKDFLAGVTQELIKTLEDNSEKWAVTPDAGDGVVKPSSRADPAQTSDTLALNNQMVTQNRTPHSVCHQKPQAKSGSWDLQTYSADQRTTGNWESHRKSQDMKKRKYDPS

[15] = target: SWI/SNF-related matrix-associated actin-dependent regulator of chromatin subfamily A member 2 (Homo sapiens, UniProt P51531); experiment: Luminescence-based cell-based high throughput dose response assay to identify activators of the function of SWI/SNF related, matrix associated, actin dependent regulator of chromatin, subfamily a, member 2 (SMARCA2, BRM).; type: functional
SWI/SNF-related matrix-associated actin-dependent regulator of chromatin subfamily A member 2, sequence (P51531 whole entry): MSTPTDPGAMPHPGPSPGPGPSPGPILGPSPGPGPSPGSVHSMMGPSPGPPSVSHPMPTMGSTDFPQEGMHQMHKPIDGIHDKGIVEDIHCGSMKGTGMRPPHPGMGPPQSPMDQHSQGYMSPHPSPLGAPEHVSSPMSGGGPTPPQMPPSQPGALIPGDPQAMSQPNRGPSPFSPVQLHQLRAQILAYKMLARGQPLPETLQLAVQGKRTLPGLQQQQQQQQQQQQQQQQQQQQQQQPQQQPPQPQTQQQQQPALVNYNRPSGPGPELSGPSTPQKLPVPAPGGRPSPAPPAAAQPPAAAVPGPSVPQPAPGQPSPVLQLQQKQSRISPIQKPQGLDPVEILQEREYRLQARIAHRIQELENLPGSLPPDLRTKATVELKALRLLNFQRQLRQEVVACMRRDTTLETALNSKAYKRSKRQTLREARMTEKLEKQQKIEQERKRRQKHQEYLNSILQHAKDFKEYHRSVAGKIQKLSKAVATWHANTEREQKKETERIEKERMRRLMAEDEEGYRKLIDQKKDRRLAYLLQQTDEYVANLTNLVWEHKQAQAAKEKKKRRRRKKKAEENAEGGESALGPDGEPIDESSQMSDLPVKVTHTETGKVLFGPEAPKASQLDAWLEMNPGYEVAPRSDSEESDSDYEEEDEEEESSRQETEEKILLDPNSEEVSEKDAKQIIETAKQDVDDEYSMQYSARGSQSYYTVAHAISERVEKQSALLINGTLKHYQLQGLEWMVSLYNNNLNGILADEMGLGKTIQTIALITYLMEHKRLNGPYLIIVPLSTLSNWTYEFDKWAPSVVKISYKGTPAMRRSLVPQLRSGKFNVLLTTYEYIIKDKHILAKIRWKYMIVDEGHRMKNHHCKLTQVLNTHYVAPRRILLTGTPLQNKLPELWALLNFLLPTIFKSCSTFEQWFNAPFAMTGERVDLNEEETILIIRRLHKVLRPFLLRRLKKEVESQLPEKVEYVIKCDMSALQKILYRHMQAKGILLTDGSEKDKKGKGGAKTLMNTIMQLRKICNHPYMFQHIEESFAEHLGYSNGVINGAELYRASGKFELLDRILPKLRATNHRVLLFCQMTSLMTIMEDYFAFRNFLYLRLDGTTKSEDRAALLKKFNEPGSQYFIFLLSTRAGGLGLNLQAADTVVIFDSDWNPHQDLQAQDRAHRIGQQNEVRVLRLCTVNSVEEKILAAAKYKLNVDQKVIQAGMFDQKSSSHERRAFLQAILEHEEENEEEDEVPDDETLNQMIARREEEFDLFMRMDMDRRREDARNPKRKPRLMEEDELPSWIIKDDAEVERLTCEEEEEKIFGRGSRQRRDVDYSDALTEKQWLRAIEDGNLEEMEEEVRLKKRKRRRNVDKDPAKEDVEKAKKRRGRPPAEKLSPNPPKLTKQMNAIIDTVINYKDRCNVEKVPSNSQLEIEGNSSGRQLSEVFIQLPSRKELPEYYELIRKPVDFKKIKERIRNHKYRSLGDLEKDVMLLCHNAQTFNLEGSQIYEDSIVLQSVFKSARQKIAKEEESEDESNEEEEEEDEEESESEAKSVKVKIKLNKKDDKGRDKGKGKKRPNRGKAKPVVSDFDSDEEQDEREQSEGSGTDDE

[16] = target: T4, Mitochondrial peptide methionine sulfoxide reductase (Bos taurus, UniProt P54149); experiment: Absorbance-based biochemical high throughput dose response assay for activators of Methionine sulfoxide reductase A (MsrA).; type: functional
T4 sequence (P54149 whole entry): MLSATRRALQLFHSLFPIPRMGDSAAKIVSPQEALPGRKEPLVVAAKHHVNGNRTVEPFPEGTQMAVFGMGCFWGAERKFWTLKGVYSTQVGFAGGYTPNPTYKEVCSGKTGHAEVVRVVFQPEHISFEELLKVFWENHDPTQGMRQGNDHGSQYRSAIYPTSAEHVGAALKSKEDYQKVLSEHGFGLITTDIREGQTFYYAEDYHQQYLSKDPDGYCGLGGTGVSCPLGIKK

HEK293 [17] = experiment: cells; conditions: Homo sapiens; remark: listed apart in the source

In the case of `C[C@H]1CN([C@@H](C)CO)C(=O)c2cccc(NC(=O)Nc3ccc(C(F)(F)F)cc3)c2O[C@H]1CN(C)Cc1ccc(Cl)c(Cl)c1`, the AC50 [1] is reported as 13.6 µM (active).
With `C[C@H](CO)N1C[C@H](C)[C@H](CN(C)C(=O)Nc2cccc3ccccc23)OCCCC[C@H](C)Oc2ccc(NC(=O)CCC(F)(F)F)cc2C1=O` the AC50 [2] was 35 µM (active), the AC50 [3] was 2.95 µM (active) and the AC50 [4] was 4.02 µM (active).
In the case of `C[C@H]1CCCCO[C@H](CN(C)Cc2ccc3c(c2)OCO3)[C@@H](C)CN([C@@H](C)CO)C(=O)c2cc(NC(=O)Nc3cccc4ccccc34)ccc2O1`, the AC50 [5] is reported as 10 µM (active) and the AC50 [6] is reported as 10 µM (active).
With `COc1ccccc1-c1cc2nc(-c3ccccc3)cc(N3CCN(C(=O)c4ccoc4)CC3)n2n1` the IC50 (H9c2) was > 79 µM (inactive), the EC50 [7] was 0.34 µM (active) and the EC50 [8] was 2.7 µM (active).
In the case of `COc1ccc(-c2n[nH]c(=S)n2-c2ccc3c(c2)OCCO3)cc1OC`, the IC50 (Beta-lactamase [9]) is reported as > 59.6 µM (inactive), the IC50 (Beta-lactamase [10]) is reported as > 59.6 µM (inactive) and the IC50 (Beta-lactamase [11]) is reported as > 59.6 µM (inactive).
With `COc1ccc(OC)c2nc3c(C(=O)NCCN(C)C)cccc3nc12` the EC50 [12] was > 91.1 µM (inactive), the EC50 (HEK293 [13]) was > 59.7 µM (inactive) and the AC50 [14] was 0.59 µM (active). For the same compound, the EC50 [15] was 10.2 µM (inactive), the EC50 [16] was 46.5 µM (inactive) and the EC50 (HEK293 [17]) was > 6.63 µM (active).
